From patent US20230114123A1, “METHOD OF STIMULATING ASYMMETRIC DIVISION OF SATELLITE STEM CELLS” (Ottawa Hospital Research Institute, priority 2017, published 2023)

Columns and labels:
EGFR signaling = type: cell-based
satellite stem cells = experiment: EDL myofiber culture, satellite stem cell divisions (Myf5-Cre/R26R-eYFP, wild type); type: cell-based, mouse; conditions: 42 h culture, Lapatinib 1 μM vs DMSO vehicle
Protocol: EGFR Signaling Regulates Asymmetric Satellite Stem Cell Divisions. To assess the role of EGFR in asymmetric division, the inventors cultured satellite cells in myofibers isolated from Extensor digitorum longus (EDL) muscles from Myf5-Cre/R26R-eYFP mice and performed both loss-of-function and gain-of-function experiments. Isolated myofibers were first cultured for 42 h with and without treatment with the Lapatinib, a specific inhibitor of EGFR signaling.
EDL fiber Culture and siRNA Transfection. Myofiber culture was performed as described in Dumont, N. A., et al. “Dystrophin expression in muscle stem cells regulates their polarity and asymmetric division.” Nat. Med. (2015) 21:1455-63, which is incorporated herein by reference. Briefly, EDL were carefully dissected and incubated in DMEM with 2% L-glutamine, 4.5% glucose, and 110 mg/mL sodium pyruvate (Gibco) containing 0.2% collagenase I (Sigma) for 45 min. Myofibers were isolated using gentle trituration with a glass pipet. Myofibers were cultured for 36, 42, or 72 h in DMEM containing 20% FBS (Wisent), 1% chick embryo extract (MP Biomedicals), and 2.5 ng/ml bFGF (Cedarlane). For pharmacological inhibition, Lapatinib ditosylate (1 mM in DMSO; Santa
Cruz Biotechnology), PTP1b inhibitor CAS 765317-72-4 (10 mM in DMSO; Santa Cruz Biotechnologies) was added to the culture medium for a final concentration of 1 μM or 10 μM, respectively; equal dilution of DMSO was used as vehicle control.
Transfection of satellite cells on myofibers was performed using lipofectamine RNAimax (Life Technologies) and validated Smartpool siRNAs for EGFR, Aurka, or scramble (SCR) (Dharmacon). Two transfections were performed at 4 h and 16 h after isolation of the myofibers as described in Le Grand, et al. (2009) Wnt7a activates the planar cell polarity pathway to drive the symmetric expansion of satellite stem cells. Cell Stem Cell 4, pp 535-547, which is incorporated herein by reference. Knockdown efficiencies of the siRNA were validated in myoblasts by western blot and qRT-PCR.

satellite cell divisions = experiment: FDB myofiber screening method validation (YFP(-) divisions); type: cell-based, mouse; conditions: control 62% (Wnt7a experiment), control 45% (EGF / PTP1b experiment)
From the text: EGFR pathway activators may be identified in a method of screening potential activators. The method includes visualizing isolated, cultured, and stained Flexor Digitorum Brevis (FDB) myofibers from Myf5-Cre/ROSA26-YFP mice in a plurality of Z-stack planes to create a projection image. Muscle satellite cells are identified in the projection image based on Pax7 expression. Of the identified muscle satellite cells: (i) satellite stem cells are identified based on the absence of YFP expression, and (ii) committed satellite progenitor cells are identified based on yellow fluorescence protein (YFP) expression. A potential EGFR pathway activator is administered to the FDB myofibers. The number of symmetric divisions of satellite myogenic cells, identified by the production of two YFP(+) satellite cells, are counted; the number of symmetric satellite stem cell divisions, identified by the production of two YFP(−) satellite cells, are counted; and the number of asymmetric satellite cell divisions, identified by the production of one YFP(+) and one YFP(−) satellite cell, are counted. The potential EGFR pathway activator is identified as an EGFR pathway activator when the percent of YFP(−) divisions that are asymmetric divisions is greater than the corresponding percent in a control sample. The expression “YFP(−) divisions” refers to all cell divisions where one of the daughter cells is YFP(−).
Identification of EGFR pathway activators. Flexor Digitorum brevis (FDB) fibers were isolated from Myf5-Cre/Rosa-YFP mice and digested in 0.25% Collagenase Type I (Sigma) in DMEM (Dulbecco's modified Eagle's medium; high glucose, L-glutamine with 110 mg/ml sodium pyruvate) for 2.5-3 h. Myofibers were dissociated using gentle trituration with a glass pipette.
Myofibers are cultured at 37° C., 5% CO2 for 42 h in myofiber culture media (DMEM supplemented with 20% FBS(Wisent), 1% Chicken Embryo extract (MP Biomediacals), 1% Penicillin/Streptomycin (Cederlane) and 2.5 ng/ml basic Fibroblast Growth Factor (Cedarlane).
Myofibers are first fixed in 2% Paraformaldehyde (PFA) for 5 mins. Myofibers are blocked for 1-2 h in 1% Bovine Serum Albumin, 0.5% TritonX-100, 5% HS and 0.01% Sodium Azide. Primary antibodies are applied in blocking solution for 2 h at room temperature or at 4° C. overnight. Myofibers are washed with PBS and stained with appropriate fluorescently labeled secondary antibodies (Alexa Fluor 488, 546) for 1 hat room temperature. Following washing with PBS, fiber nuclei are stained with DAPI for 5 min. The following antibodies are used: mouse anti-Pax7 (Developmental Studies Hybridoma Bank (DSHB)), chicken anti-GFP (cat. no. ab13970, Abcam).
Satellite cells are focused based on Channel 3 (DAPI) staining. Autofocus is performed by sampling seven (7) z-stacks taken at […] intervals for an extended depth of field of 85.3 μm.
Z-stack images were consolidated to create a projection image with all satellite cells in focus. Image acquisition of a projection image for analysis was created from seven (7) Z-stack images taken at 6.5 μm intervals, for an extended depth of field of 45.5 μm at 200 (Objective 20×) magnification. The projection direction was centered, where the median stacks fall within the center of each myofiber. […]
Potential satellite cells were first identified based on Channel 1 (Pax7) signal, and separated from other satellite cells based on intensity of fluorescence between cells. […]

CS(=O)(=O)CCNCc1ccc(-c2ccc3ncnc(Nc4ccc(OCc5cccc(F)c5)c(Cl)c4)c3c2)o1 [Lapatinib, reference compound]
EGFR signaling at the concentration used in the screen (EGFR signaling): completely abolishes EGFR signaling | decrease in the rate of asymmetric divisions (satellite stem cells; FIG. 1A): 83% | increase in the number of satellite stem cells (satellite stem cells; FIG. 1B): 71%

B1: Wnt7a ligand: known activator of symmetric satellite cell divisions (protein, UniProt O00755 32-349, looked up)
Protein Wnt-7a: LGASIICNKIPGLAPRQRAICQSRPDAIIVIGEGSQMGLDECQFQFRNGRWNCSALGERTVFGKELKVGSREAAFTYAIIAAGVAHAITAACTQGNLSDCGCDKEKQGQYHRDEGWKWGGCSADIRYGIGFAKVFVDAREIKQNARTLMNLHNNEAGRKILEENMKLECKCHGVSGSCTTKTCWTTLPQFRELGYVLKDKYNEAVHVEPVRASRNKRPTFLKIKKPLSYRKPMDTDLVYIEKSPNYCEEDPVTGSVGTQGRACNKTAPQASGCDLMCCGRGYNTHQYARVWQCNCKFHWCCYVKCNTCSERTEMYTCK
percentage of YFP(-) divisions that were symmetric divisions (satellite cell divisions): 78%
